Residues, ends and D or L forms follow the SMILES beside them.
What was measured:
[1] = Stability and half-life of Os-pep in mouse plasma; format: in vitro ADME; settings: 37 °C, LC-MS/MS
Method: The stability of Os-pep in mouse plasma was evaluated. An aqueous stock solution of Os-pep was added to each mouse plasma sample (n= 3) at a final concentration of 1 μg/mL. Tubes were placed in a Thermomixer (Eppendorf, Germany) and maintained at 37 °C with rotation at 300 rpm. These samples were incubated for up to 2 h. The amount of peptide remaining after the incubation was immediately determined by liquid chromatography-tandem mass spectrometry (LC-MS/MS). At different time intervals, an aliquot (100 μL) of ice-cold acetonitrile containing 0.1 μg/mL gabapentin (internal standard) was added to a 50 μL aliquot of the sample. Deproteinized samples were analyzed after vortex-mixing and centrifugation.

AdipoR1/p-AMPK signaling = AdipoR1/p-AMPK signaling in in vitro AD models (immunoblot, ELISA, AMPK assay); format: cell-based, human; settings: 10 μM, 12 h
Method: Human neuroblastoma SH-SY5Y cells were seeded (in 6-well culture plates for immunoblotting and in chamber slides for immunofluorescence) in DMEM (Dulbecco’s modified Eagle medium) containing 10% fetal bovine serum (FBS) and 1% antibiotics (penicillin-streptomycin) and incubated at 37 °C in humidified air containing 5% CO2. Once the cells reached 70–80% confluence, the cells were transfected using the pCAX vector containing the APPswe/ind gene using Lipofectamine 3000 (Life Technologies) according to the provider’s protocols. […]
SH-SY5Y (2×10^4/ml) cells used for ELISA and AMPK assays were cultured in 35-mm dishes in the presence of culture medium of DMEM containing FBS (10%) and antibiotics (1%) at 37°C in humidified air containing 5% CO2 to 70-75% confluences. […] Seventy-two hours after transfections, cells were treated with Os-pep (10 µM) for 12 h and cell lysates were collected and analyzed using ELISAs and immunoassays, as appropriate.
The AdipoR1 expressions were measured in the brain homogenates from APP/PS1 and Adipo-^/- mice and in lysates from APPswe/ind-overexpressed SH-SY5Y cells transfected with the AdipoR1 siRNA and treated Os-pep (10 µM) in vitro using the mouse and human AdipoR1 ELISA kits, accordingly to the provider’s instructions (MyBioSource). […]

p-PI3K/Akt/GSK3β (Ser 9) = test: Downstream insulin signaling in mouse brain, immunoblot; format: in vivo; settings: AβO-treated, APP/PS1 and Adipo−/− mice, 5 μg/g, i.p., alternating days for 45 days
Method: (§1) Os-pep was dissolved in double-deionized distilled water and then prepared in normal saline to obtain the final administered concentration. The AβO, APP/PS1, Adipo^−/− and WT mice were injected i.p. with Os-pep at a dosage of 5 μg/g on alternating days for 45 days. WT, Veh-injected transgenic-APP/PS1 and Adipo^−/− mice were injected with the same volume of double-deionized water and normal saline. The WT control and sham mice as well as the Veh-injected AβO, APP/PS1, Adipo^−/− and HFD mice received the same volume of double-deionized distilled water or normal saline.
(§2) The protein concentrations of the homogenates of mouse brain tissue and cell lysates in vitro were measured using a Bio-Rad protein assay kit (Bio-Rad Laboratories, Hercules, CA), and immunoblotting was performed as we previously described, using primary antibodies (detailed information described in the supplementary Table 1). Western blotting membranes have been cut prior to original western blot images and original western blot images are available at supplementary material.

[2] = tested on: pre- and postsynaptic protein markers; test: Pre- and postsynaptic protein markers in mouse brain, immunoblot; format: in vivo; settings: 5 μg/g, i.p., alternating days for 45 days
Method: as §1, §2

[3] = tested on: hippocampal pyramidal neuronal cells; test: Golgi staining, dendritic complexity and spine density of hippocampal CA1 pyramidal neurons; format: in vivo, mouse; settings: Adipo−/− and AβO mice
Description: In a separate cohort of studies, we performed Golgi staining and morphological analysis of hippocampal pyramidal neuronal cells and were investigated as accordingly our previous protocol.

## C[C@@H](O)[C@H](NC(=O)[C@@H]1CCCN1C(=O)CNC(=O)[C@H](CS)NC(=O)[C@@H]1CCCN1C(=O)CNC(=O)[C@H](CCC(N)=O)NC(=O)[C@@H](NC(=O)[C@@H](N)CS)[C@@H](C)O)C(=O)O [Os-pep] (H-CTQGPCGPT-OH; N-terminus and C-terminus assumed)
[1]; 1 μg/mL, incubated up to 2 h, n = 3, first-order kinetics
  half-life (t1/2): approximately 2 h
[1]; 300 rpm, after 2 h, n = 3, 0 min set to 100%, read-out: initial concentration remained
  remaining at 2 h, 1 μg/mL: 53%
[1]; triplicate samples, read-out: Half-life (printed in Fig. 8c) (converted)
  half-life at 1 μg/mL: 2.03 h
AdipoR1/p-AMPK signaling; APPswe/ind SH-SY5Y with AdipoR1 siRNA, ELISA and AMPK assay
  AdipoR1/AMPK signaling with AdipoR1 knockdown: did not promote the stimulation of AdipoR1/AMPK signaling
AdipoR1/p-AMPK signaling; AβO-treated and human APPswe/ind-overexpressing SH-SY5Y cells
  neuronal AdipoR1/p-AMPK signaling: significantly increased neuronal AdipoR1/p-AMPK signaling
p-PI3K/Akt/GSK3β (Ser 9)
  p-PI3K/Akt/GSK3β (Ser 9) levels: reversed the reduction
[2]; AβO-treated, APP/PS1 and Adipo−/− mice
  pre- and postsynaptic protein levels: remarkably increased
[2]; WT normal mice
  effects on pre- and postsynaptic markers, Os-pep alone: did not have any detrimental effects
[3]; 5 μg/g, i.p., alternating days for 45 days
  total dendritic length: significantly increased the total dendritic length
[3]; hippocampal CA1
  total number of spines and filopodia-like spines: significantly increased the total number of spines and the number of filopodia-like spines

From PMC8042910, “Adiponectin-mimetic novel nonapeptide rescues aberrant neuronal metabolic-associated memory deficits in Alzheimer’s disease” (Molecular Neurodegeneration, 2021)
